Each structure is given as a SMILES string.
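Also: spheroids exposed to compounds for 7 days before readout; percent of vehicle DMSO control viability with 100% = untreated-like growth.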

In one test the test system is 282377-053-R-J1-PDC complex spheroids, viability. Description: Anticancer human tumor 282377-053-R-J1-PDC patient-derived colon adenocarcinoma cell line growth inhibition [GQUAD]. To be noted: second compound 0.1 µM; first compound 1 µM; stronger effect = lower value. Put shortly: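 Multi-cell-type spheroids of tumor cells with HUVEC and mesenchymal stem cells, treated with drug combinations. Concentrations descend in half-log steps from near clinical Cmax, or from 10 microM where Cmax is unknown; viability read-out.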
For the molecule `CC1COCCN1c1cc(C2(S(C)(=N)=O)CC2)nc(-c2ccnc3[nH]ccc23)n1` (configuration not stated) + Cc1cnc(CNC(=O)c2c(=O)c3ccc(N4CCCN(C)CC4)nc3n3c2sc2ccccc23)cn1, the viability, T/C (in general, the ratio of treated to control) was 76.2%.

On to `COc1ccc([C@@H](O)c2cc(-c3ncnc4cc(N5CCOCC5)ccc34)c(F)cc2Cl)nn1` + Cc1cnc(CNC(=O)c2c(=O)c3ccc(N4CCCN(C)CC4)nc3n3c2sc2ccccc23)cn1, for which the viability, T/C is 77.3%.

Staying with this test, now noted: second compound 0.1 µM; first compound 3.16 µM; stronger effect = lower value.
As for `C=CCn1c(=O)c2cnc(Nc3ccc(N4CCN(C)CC4)cc3)nc2n1-c1cccc(C(C)(C)O)n1` + Cc1[nH]c2ccc(F)cc2c1-c1nc2c3cccnc3c3ncccc3c2[nH]1, the viability, T/C is 56.5%.

Take `COc1ncnc(C2CC2)c1-c1ncc2cnn(Cc3ccc(-c4nc(C(F)(F)F)cn4C(C)C)cc3)c2n1` + Cc1[nH]c2ccc(F)cc2c1-c1nc2c3cccnc3c3ncccc3c2[nH]1: the viability, T/C was 101%.

`CC1COCCN1c1cc(-c2ccnn2C)c2ccnc(-c3ccn[nH]3)c2n1` (configuration not stated) + Cc1cnc(CNC(=O)c2c(=O)c3ccc(N4CCCN(C)CC4)nc3n3c2sc2ccccc23)cn1: the viability, T/C was 23.7%.

For the molecule `CC1COCCN1c1cc(C2(S(C)(=N)=O)CC2)nc(-c2ccnc3[nH]ccc23)n1` (configuration not stated) + Cc1cnc(CNC(=O)c2c(=O)c3ccc(N4CCCN(C)CC4)nc3n3c2sc2ccccc23)cn1, the viability, T/C was 59.1%.

Regarding `COc1ccc([C@@H](O)c2cc(-c3ncnc4cc(N5CCOCC5)ccc34)c(F)cc2Cl)nn1` + Cc1cnc(CNC(=O)c2c(=O)c3ccc(N4CCCN(C)CC4)nc3n3c2sc2ccccc23)cn1, the viability, T/C was 66%.

The test is the same for the next values; noted with them: second compound 0.1 µM; first compound 10 µM; stronger effect = lower value.
Take `C=CCn1c(=O)c2cnc(Nc3ccc(N4CCN(C)CC4)cc3)nc2n1-c1cccc(C(C)(C)O)n1` + Cc1[nH]c2ccc(F)cc2c1-c1nc2c3cccnc3c3ncccc3c2[nH]1: the viability, T/C is 12.7%.

As for `COc1ncnc(C2CC2)c1-c1ncc2cnn(Cc3ccc(-c4nc(C(F)(F)F)cn4C(C)C)cc3)c2n1` + Cc1[nH]c2ccc(F)cc2c1-c1nc2c3cccnc3c3ncccc3c2[nH]1, the viability, T/C was 7.94%.

As to `CC1COCCN1c1cc(-c2ccnn2C)c2ccnc(-c3ccn[nH]3)c2n1` (configuration not stated) + Cc1cnc(CNC(=O)c2c(=O)c3ccc(N4CCCN(C)CC4)nc3n3c2sc2ccccc23)cn1, the viability, T/C was 16.2%.

Consider `CC1COCCN1c1cc(C2(S(C)(=N)=O)CC2)nc(-c2ccnc3[nH]ccc23)n1` (configuration not stated) + Cc1cnc(CNC(=O)c2c(=O)c3ccc(N4CCCN(C)CC4)nc3n3c2sc2ccccc23)cn1, for which the viability, T/C is 35.4%.

Turning to `COc1ccc([C@@H](O)c2cc(-c3ncnc4cc(N5CCOCC5)ccc34)c(F)cc2Cl)nn1` + Cc1cnc(CNC(=O)c2c(=O)c3ccc(N4CCCN(C)CC4)nc3n3c2sc2ccccc23)cn1, the viability, T/C was 46.4%.

The same test, now with this note: second compound 0.316 µM; first compound 0.0316 µM; stronger effect = lower value.
Take `C=CCn1c(=O)c2cnc(Nc3ccc(N4CCN(C)CC4)cc3)nc2n1-c1cccc(C(C)(C)O)n1` + Cc1[nH]c2ccc(F)cc2c1-c1nc2c3cccnc3c3ncccc3c2[nH]1: the viability, T/C was 91.6%.

In the case of `COc1ncnc(C2CC2)c1-c1ncc2cnn(Cc3ccc(-c4nc(C(F)(F)F)cn4C(C)C)cc3)c2n1` + Cc1[nH]c2ccc(F)cc2c1-c1nc2c3cccnc3c3ncccc3c2[nH]1, the viability, T/C was 103%.

Regarding `CC1COCCN1c1cc(-c2ccnn2C)c2ccnc(-c3ccn[nH]3)c2n1` (configuration not stated) + Cc1cnc(CNC(=O)c2c(=O)c3ccc(N4CCCN(C)CC4)nc3n3c2sc2ccccc23)cn1, the viability, T/C is 41.9%.

With `CC1COCCN1c1cc(C2(S(C)(=N)=O)CC2)nc(-c2ccnc3[nH]ccc23)n1` (configuration not stated) + Cc1cnc(CNC(=O)c2c(=O)c3ccc(N4CCCN(C)CC4)nc3n3c2sc2ccccc23)cn1, the viability, T/C is 83.2%.

In the case of `COc1ccc([C@@H](O)c2cc(-c3ncnc4cc(N5CCOCC5)ccc34)c(F)cc2Cl)nn1` + Cc1cnc(CNC(=O)c2c(=O)c3ccc(N4CCCN(C)CC4)nc3n3c2sc2ccccc23)cn1, the viability, T/C is 79.2%.

The same test, now with this note: second compound 0.316 µM; first compound 0.1 µM; stronger effect = lower value.
As for `C=CCn1c(=O)c2cnc(Nc3ccc(N4CCN(C)CC4)cc3)nc2n1-c1cccc(C(C)(C)O)n1` + Cc1[nH]c2ccc(F)cc2c1-c1nc2c3cccnc3c3ncccc3c2[nH]1, the viability, T/C is 70.5%.

For the molecule `COc1ncnc(C2CC2)c1-c1ncc2cnn(Cc3ccc(-c4nc(C(F)(F)F)cn4C(C)C)cc3)c2n1` + Cc1[nH]c2ccc(F)cc2c1-c1nc2c3cccnc3c3ncccc3c2[nH]1, the viability, T/C is 88.3%.

For the molecule `CC1COCCN1c1cc(-c2ccnn2C)c2ccnc(-c3ccn[nH]3)c2n1` (configuration not stated) + Cc1cnc(CNC(=O)c2c(=O)c3ccc(N4CCCN(C)CC4)nc3n3c2sc2ccccc23)cn1, the viability, T/C is 40.9%.

Turning to `CC1COCCN1c1cc(C2(S(C)(=N)=O)CC2)nc(-c2ccnc3[nH]ccc23)n1` (configuration not stated) + Cc1cnc(CNC(=O)c2c(=O)c3ccc(N4CCCN(C)CC4)nc3n3c2sc2ccccc23)cn1, the viability, T/C is 92.2%.

Take `COc1ccc([C@@H](O)c2cc(-c3ncnc4cc(N5CCOCC5)ccc34)c(F)cc2Cl)nn1` + Cc1cnc(CNC(=O)c2c(=O)c3ccc(N4CCCN(C)CC4)nc3n3c2sc2ccccc23)cn1: the viability, T/C was 84.8%.

The test is the same for the next values; noted with them: second compound 0.316 µM; first compound 0.316 µM; stronger effect = lower value.
With `C=CCn1c(=O)c2cnc(Nc3ccc(N4CCN(C)CC4)cc3)nc2n1-c1cccc(C(C)(C)O)n1` + Cc1[nH]c2ccc(F)cc2c1-c1nc2c3cccnc3c3ncccc3c2[nH]1, the viability, T/C was 77.7%.

As to `COc1ncnc(C2CC2)c1-c1ncc2cnn(Cc3ccc(-c4nc(C(F)(F)F)cn4C(C)C)cc3)c2n1` + Cc1[nH]c2ccc(F)cc2c1-c1nc2c3cccnc3c3ncccc3c2[nH]1, the viability, T/C is 111%.

In the case of `CC1COCCN1c1cc(-c2ccnn2C)c2ccnc(-c3ccn[nH]3)c2n1` (configuration not stated) + Cc1cnc(CNC(=O)c2c(=O)c3ccc(N4CCCN(C)CC4)nc3n3c2sc2ccccc23)cn1, the viability, T/C was 36.1%.

As for `CC1COCCN1c1cc(C2(S(C)(=N)=O)CC2)nc(-c2ccnc3[nH]ccc23)n1` (configuration not stated) + Cc1cnc(CNC(=O)c2c(=O)c3ccc(N4CCCN(C)CC4)nc3n3c2sc2ccccc23)cn1, the viability, T/C is 97.1%.

For the molecule `COc1ccc([C@@H](O)c2cc(-c3ncnc4cc(N5CCOCC5)ccc34)c(F)cc2Cl)nn1` + Cc1cnc(CNC(=O)c2c(=O)c3ccc(N4CCCN(C)CC4)nc3n3c2sc2ccccc23)cn1, the viability, T/C is 69.9%.

Values taken from PubChem BioAssay AID2060501 (Molecular Pharmacology Branch, DTP, NCI, 2025).
